Source: ChEMBL document CHEMBL1909046, “DrugMatrix in vitro pharmacology data”

Key:
[1] = target: Beta-2 adrenergic receptor (Homo sapiens, UniProt P07550); experiment: DRUGMATRIX: Adrenergic beta2 radioligand binding (ligand: [3H] CGP-12177); format: cell membranes, Membrane; conditions: cho; Not Active = under 50% inhibition at 10 µM
Insulin receptor = Insulin receptor (Rattus norvegicus, UniProt P15127); format: cell membranes, Wistar, Liver, Membrane; note: in other assays of this panel Not Active means under 50% inhibition at 10 µM
Chain of Insulin receptor (P15127 27-759 limits assumed): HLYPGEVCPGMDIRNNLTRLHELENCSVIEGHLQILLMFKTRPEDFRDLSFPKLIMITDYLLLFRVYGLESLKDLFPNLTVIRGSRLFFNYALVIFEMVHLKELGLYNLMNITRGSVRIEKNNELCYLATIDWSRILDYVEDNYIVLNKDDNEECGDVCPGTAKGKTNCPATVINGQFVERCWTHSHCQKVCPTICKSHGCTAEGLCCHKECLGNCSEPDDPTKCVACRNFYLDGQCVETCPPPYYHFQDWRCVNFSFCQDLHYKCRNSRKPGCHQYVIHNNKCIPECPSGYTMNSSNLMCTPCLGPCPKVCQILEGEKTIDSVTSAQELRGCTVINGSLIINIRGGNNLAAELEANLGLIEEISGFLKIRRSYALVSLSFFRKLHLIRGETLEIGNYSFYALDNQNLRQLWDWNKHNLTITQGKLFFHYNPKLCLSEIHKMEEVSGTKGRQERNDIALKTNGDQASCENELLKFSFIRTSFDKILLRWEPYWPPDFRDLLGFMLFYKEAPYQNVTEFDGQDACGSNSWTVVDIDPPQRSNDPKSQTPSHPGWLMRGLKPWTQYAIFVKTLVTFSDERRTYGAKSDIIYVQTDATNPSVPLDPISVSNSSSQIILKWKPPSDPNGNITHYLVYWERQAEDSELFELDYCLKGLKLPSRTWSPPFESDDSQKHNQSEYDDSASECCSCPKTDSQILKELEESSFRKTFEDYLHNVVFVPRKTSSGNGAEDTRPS
Chain of Insulin receptor (P15127 764-1383 limits assumed): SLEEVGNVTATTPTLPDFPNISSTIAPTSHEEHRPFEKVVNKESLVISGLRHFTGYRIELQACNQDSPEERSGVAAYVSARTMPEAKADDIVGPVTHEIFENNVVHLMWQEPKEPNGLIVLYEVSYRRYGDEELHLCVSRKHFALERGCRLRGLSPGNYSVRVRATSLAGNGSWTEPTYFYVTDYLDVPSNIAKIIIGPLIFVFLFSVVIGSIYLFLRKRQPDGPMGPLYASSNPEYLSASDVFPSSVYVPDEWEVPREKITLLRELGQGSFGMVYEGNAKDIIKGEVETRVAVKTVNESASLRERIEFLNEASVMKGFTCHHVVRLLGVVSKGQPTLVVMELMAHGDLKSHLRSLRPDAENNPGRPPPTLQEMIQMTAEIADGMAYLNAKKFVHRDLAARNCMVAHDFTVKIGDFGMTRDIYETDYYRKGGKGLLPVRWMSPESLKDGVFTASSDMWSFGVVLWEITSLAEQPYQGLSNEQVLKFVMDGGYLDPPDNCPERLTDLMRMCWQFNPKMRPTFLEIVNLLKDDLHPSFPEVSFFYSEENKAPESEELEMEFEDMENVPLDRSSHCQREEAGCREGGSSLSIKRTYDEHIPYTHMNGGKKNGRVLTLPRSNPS

Melanocortin receptor 3 = Melanocortin receptor 3 (Homo sapiens, UniProt P41968); format: cell membranes, Membrane; conditions: hek293; note: in other assays of this panel Not Active means under 50% inhibition at 10 µM
Chain of Melanocortin receptor 3 (P41968 whole entry): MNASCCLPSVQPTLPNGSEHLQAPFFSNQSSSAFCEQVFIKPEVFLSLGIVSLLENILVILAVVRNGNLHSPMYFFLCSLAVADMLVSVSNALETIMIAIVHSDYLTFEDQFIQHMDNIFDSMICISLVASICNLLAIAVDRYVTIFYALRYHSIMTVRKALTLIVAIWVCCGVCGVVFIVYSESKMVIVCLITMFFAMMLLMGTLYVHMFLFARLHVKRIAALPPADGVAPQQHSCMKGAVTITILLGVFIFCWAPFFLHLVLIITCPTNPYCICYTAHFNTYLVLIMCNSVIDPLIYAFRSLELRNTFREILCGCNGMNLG

[2] = target: T1, Angiotensin-converting enzyme (Oryctolagus cuniculus, UniProt P12822); experiment: biochemical; format: tissue-based, Lung;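 note: enzymatic inhibition of angiotensin-converting enzyme measured with FAPGG as the substrate; in other assays of this panel Not Active means under 50% inhibition at 10 µM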
T1 sequence (P12822 whole entry): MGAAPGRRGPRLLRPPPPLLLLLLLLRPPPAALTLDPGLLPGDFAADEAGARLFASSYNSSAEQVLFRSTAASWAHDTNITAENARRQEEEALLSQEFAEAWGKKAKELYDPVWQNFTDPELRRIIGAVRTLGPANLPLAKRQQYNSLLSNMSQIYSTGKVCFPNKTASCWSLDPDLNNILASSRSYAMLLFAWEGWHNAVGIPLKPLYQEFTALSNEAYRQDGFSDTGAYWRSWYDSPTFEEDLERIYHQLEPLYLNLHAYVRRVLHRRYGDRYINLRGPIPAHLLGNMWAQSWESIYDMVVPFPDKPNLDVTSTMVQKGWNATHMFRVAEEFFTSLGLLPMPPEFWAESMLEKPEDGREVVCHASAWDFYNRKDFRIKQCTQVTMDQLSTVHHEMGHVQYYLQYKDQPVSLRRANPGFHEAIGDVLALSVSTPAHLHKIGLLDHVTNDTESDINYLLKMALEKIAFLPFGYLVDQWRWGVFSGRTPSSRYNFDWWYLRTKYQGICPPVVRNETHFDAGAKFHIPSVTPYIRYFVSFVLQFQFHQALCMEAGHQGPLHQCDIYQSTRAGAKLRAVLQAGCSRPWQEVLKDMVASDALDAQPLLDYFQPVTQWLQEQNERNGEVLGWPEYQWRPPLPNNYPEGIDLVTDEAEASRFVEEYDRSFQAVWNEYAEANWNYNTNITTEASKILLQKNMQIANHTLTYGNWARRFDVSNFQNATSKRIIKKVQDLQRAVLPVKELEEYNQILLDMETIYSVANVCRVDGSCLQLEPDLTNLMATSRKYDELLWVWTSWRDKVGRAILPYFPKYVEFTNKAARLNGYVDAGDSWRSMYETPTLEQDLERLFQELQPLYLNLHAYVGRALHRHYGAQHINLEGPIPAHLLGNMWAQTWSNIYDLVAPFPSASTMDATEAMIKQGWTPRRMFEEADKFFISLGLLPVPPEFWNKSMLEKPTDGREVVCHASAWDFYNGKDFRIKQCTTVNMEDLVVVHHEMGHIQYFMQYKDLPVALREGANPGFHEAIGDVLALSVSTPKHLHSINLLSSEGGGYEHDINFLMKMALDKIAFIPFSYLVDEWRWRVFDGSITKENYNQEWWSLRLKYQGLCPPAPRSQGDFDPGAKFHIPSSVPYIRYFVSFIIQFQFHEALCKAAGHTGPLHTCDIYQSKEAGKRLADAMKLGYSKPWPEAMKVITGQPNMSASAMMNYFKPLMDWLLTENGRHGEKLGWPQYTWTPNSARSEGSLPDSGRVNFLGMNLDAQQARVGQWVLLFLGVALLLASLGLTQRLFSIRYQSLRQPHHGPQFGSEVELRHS

Interstitial collagenase = target: T2, Interstitial collagenase (Homo sapiens, UniProt P03956); format: tissue-based, Rheumatoid synovial fibroblasts;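 note: MMP-1 enzyme inhibition assay using a peptide substrate; in other assays of this panel Not Active means under 50% inhibition at 10 µM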
T2 sequence (P03956 whole entry): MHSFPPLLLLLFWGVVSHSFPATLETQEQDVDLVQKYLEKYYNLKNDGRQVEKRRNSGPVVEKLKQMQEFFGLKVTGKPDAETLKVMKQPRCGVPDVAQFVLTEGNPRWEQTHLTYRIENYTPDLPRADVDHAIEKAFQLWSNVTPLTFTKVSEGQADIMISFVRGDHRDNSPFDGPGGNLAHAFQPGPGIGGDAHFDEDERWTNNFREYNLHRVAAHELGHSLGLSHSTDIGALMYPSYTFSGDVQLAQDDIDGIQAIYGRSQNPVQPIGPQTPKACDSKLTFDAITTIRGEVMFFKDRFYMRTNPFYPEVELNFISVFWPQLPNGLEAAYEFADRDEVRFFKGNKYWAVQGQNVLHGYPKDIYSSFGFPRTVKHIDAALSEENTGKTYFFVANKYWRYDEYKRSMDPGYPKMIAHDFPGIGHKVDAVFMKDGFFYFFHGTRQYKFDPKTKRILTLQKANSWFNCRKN

[3] = target: Mitogen-activated protein kinase 3 (Homo sapiens, UniProt P27361); experiment: DRUGMATRIX: Protein Serine/Threonine Kinase, ERK1 enzyme inhibition (substrate: Myelin Basic Protein); design: species or system Escherichia coli; conditions: Not Active = under 50% inhibition at 10 µM
Chain of Mitogen-activated protein kinase 3 (P27361 whole entry): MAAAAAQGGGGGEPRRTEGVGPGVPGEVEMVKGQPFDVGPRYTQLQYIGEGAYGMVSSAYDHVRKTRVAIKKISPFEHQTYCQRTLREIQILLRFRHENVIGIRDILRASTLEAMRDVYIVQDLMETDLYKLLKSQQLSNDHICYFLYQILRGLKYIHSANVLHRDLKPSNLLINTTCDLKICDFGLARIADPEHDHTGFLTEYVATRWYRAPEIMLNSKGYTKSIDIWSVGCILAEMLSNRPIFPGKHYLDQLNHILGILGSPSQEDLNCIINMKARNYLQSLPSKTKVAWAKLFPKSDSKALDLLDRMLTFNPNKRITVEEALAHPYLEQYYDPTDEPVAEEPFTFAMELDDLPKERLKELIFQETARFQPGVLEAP

[4] = target: Epidermal growth factor receptor (Homo sapiens, UniProt P00533); experiment: DRUGMATRIX: Protein Tyrosine Kinase, EGF Receptor enzyme inhibition (substrate: Poly(Glu:Tyr)); format: cell-based, Insect cells; conditions: insect cells; Not Active = under 50% inhibition at 10 µM
Glucocorticoid receptor = target: T3, Glucocorticoid receptor (Homo sapiens, UniProt P04150); conditions: hela s3; note: in other assays of this panel Not Active means under 50% inhibition at 10 µM
T3 sequence (P04150 whole entry): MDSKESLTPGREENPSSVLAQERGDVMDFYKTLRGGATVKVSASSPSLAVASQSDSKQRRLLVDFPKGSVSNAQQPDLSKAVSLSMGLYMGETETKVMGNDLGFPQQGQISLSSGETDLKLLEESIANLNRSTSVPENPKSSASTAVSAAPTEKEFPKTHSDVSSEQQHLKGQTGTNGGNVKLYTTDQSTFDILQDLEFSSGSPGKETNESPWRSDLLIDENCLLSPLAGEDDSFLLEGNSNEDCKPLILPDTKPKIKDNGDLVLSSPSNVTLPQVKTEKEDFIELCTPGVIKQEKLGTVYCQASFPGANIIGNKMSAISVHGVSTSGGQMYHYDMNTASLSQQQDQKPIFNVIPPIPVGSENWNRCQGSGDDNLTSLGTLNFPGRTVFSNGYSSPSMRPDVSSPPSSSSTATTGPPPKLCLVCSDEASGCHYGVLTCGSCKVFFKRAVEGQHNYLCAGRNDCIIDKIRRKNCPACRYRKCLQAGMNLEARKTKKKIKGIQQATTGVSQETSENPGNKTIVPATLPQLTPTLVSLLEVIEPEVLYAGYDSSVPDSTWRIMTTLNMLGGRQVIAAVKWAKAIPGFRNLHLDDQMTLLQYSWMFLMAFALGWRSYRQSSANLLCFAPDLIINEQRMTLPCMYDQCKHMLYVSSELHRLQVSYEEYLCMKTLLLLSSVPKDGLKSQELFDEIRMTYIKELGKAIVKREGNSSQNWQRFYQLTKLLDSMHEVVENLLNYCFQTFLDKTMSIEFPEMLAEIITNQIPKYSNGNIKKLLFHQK

Brc1ccccc1 [BROMOBENZENE]
Not Active: IC50 [1] | IC50 (Insulin receptor) | IC50 (Melanocortin receptor 3) | IC50 [2] | IC50 (Interstitial collagenase) | IC50 [3] | IC50 [4] | IC50 (Glucocorticoid receptor)

O=C1NC(=O)C(c2ccccc2)(c2ccccc2)N1 [PHENYTOIN]
Not Active: IC50 [1] | IC50 (Insulin receptor) | IC50 (Melanocortin receptor 3) | IC50 [2] | IC50 (Interstitial collagenase) | IC50 [3] | IC50 [4] | IC50 (Glucocorticoid receptor)

C=C(C)[C@@H]1[C@H]2OC(=O)[C@@H]1[C@]1(O)C[C@H]3O[C@]34C(=O)O[C@H]2[C@]14C [PICROTOXININ]
Not Active: IC50 [1] | IC50 (Insulin receptor) | IC50 (Melanocortin receptor 3) | IC50 [2] | IC50 (Interstitial collagenase) | IC50 [3] | IC50 [4] | IC50 (Glucocorticoid receptor)

Nc1nc2c(ncn2COC(CO)CO)c(=O)[nH]1 [GANCICLOVIR]
Not Active: IC50 [1] | IC50 (Insulin receptor) | IC50 (Melanocortin receptor 3) | IC50 [2] | IC50 (Interstitial collagenase) | IC50 [3] | IC50 [4] | IC50 (Glucocorticoid receptor)

O=C1CCc2cc(OCCCCc3nnnn3C3CCCCC3)ccc2N1 [CILOSTAZOL]
Not Active: IC50 [1] | IC50 (Insulin receptor) | IC50 (Melanocortin receptor 3) | IC50 [2] | IC50 (Interstitial collagenase) | IC50 [3] | IC50 [4] | IC50 (Glucocorticoid receptor)

COCc1c(C(C)C)nc(C(C)C)c(/C=C/[C@@H](O)C[C@@H](O)CC(=O)O)c1-c1ccc(F)cc1 [CERIVASTATIN]
Not Active: IC50 [1] | IC50 (Insulin receptor) | IC50 (Melanocortin receptor 3) | IC50 [2] | IC50 (Interstitial collagenase) | IC50 [3] | IC50 [4] | IC50 (Glucocorticoid receptor)

O=C(O)c1cn(C2CC2)c2cc(N3CCNCC3)c(F)cc2c1=O [CIPROFLOXACIN]
Not Active: IC50 [1] | IC50 (Insulin receptor) | IC50 (Melanocortin receptor 3) | IC50 [2] | IC50 (Interstitial collagenase) | IC50 [3] | IC50 [4] | IC50 (Glucocorticoid receptor)

CCOC(=O)OC(C)OC1=C(C(=O)Nc2ccccn2)N(C)S(=O)(=O)c2ccccc21 (stereo not drawn) [AMPIROXICAM]
Not Active: IC50 [1] | IC50 (Insulin receptor) | IC50 (Melanocortin receptor 3) | IC50 [2] | IC50 (Interstitial collagenase) | IC50 [3] | IC50 [4] | IC50 (Glucocorticoid receptor)

NCC1(CC(=O)O)CCCCC1 [GABAPENTIN]
Not Active: IC50 [1] | IC50 (Insulin receptor) | IC50 (Melanocortin receptor 3) | IC50 [2] | IC50 (Interstitial collagenase) | IC50 [3] | IC50 [4] | IC50 (Glucocorticoid receptor)

CCc1ccc(C(=O)C(C)CN2CCCCC2)cc1 (stereo not drawn) [EPERISONE]
Not Active: IC50 [1] | IC50 (Insulin receptor) | IC50 (Melanocortin receptor 3) | IC50 [2] | IC50 (Interstitial collagenase) | IC50 [3] | IC50 [4] | IC50 (Glucocorticoid receptor)

NCC(=O)O [GLYCINE]
Not Active: IC50 [1] | IC50 (Insulin receptor) | IC50 (Melanocortin receptor 3) | IC50 [2] | IC50 (Interstitial collagenase) | IC50 [3] | IC50 [4] | IC50 (Glucocorticoid receptor)

CC1(C)S[C@@H]2[C@H](NC(=O)[C@H](NC(=O)N3CCNC3=O)c3ccccc3)C(=O)N2[C@H]1C(=O)O [AZLOCILLIN]
Not Active: IC50 [1] | IC50 (Insulin receptor) | IC50 (Melanocortin receptor 3) | IC50 [2] | IC50 (Interstitial collagenase) | IC50 [3] | IC50 [4] | IC50 (Glucocorticoid receptor)

OXALIPLATIN
Not Active: IC50 [1] | Ki [1] | IC50 (Insulin receptor) | Ki (Insulin receptor) | IC50 (Melanocortin receptor 3) | Ki (Melanocortin receptor 3) | IC50 [2] | Ki [2] | IC50 (Interstitial collagenase) | Ki (Interstitial collagenase) | IC50 [3] | Ki [3] | IC50 [4] | Ki [4] | IC50 (Glucocorticoid receptor) | Ki (Glucocorticoid receptor)

CN(C)CCCC1(c2ccc(F)cc2)OCc2cc(C#N)ccc21 (stereo not drawn) [CITALOPRAM]
Not Active: IC50 [1] | IC50 (Insulin receptor) | IC50 (Melanocortin receptor 3) | IC50 [2] | IC50 (Interstitial collagenase) | IC50 [3] | IC50 [4] | IC50 (Glucocorticoid receptor)

C/C=C1\[C@H]2C=C(C)C[C@]1(N)c1ccc(=O)[nH]c1C2 [HUPERZINE A]
Not Active: IC50 [1] | IC50 (Insulin receptor) | IC50 (Melanocortin receptor 3) | IC50 [2] | IC50 (Interstitial collagenase) | IC50 [3] | IC50 [4] | IC50 (Glucocorticoid receptor)
